Test results published in patent US10820591B2, “Substituted sulfonyl amides for controlling animal pests” (Bayer Aktiengesellschaft, priority 2016, dated 2020).

tested on: Meloidogyne incognita; experiment: Meloidogyne incognita test (sand, lettuce, gall formation); format: in vivo; details: Meloidogyne incognita, 336 h, 20 ppm, after 14 days; read-out: nematicidal efficacy (formation of galls)
Experimental: Meloidogyne incognita Test [table] To produce a suitable active compound preparation, 1 part by weight of active compound is mixed with the stated amount of solvent and the concentrate is diluted to the desired concentration with water. Vessels are filled with sand, active compound solution, an egg/larvae suspension of the southern root-knot nematode (Meloidogyne incognita) and lettuce seeds. The lettuce seeds germinate and the plants develop. The galls develop on the roots. After 14 days, the nematicidal efficacy in % is determined by the formation of galls. 100% means that no galls were found; 0% means that the number of galls on the treated plants corresponds to the untreated control.

Compound | pest or weed control at 20 ppm [%]
CC(C)S(=O)(=O)NC(=O)c1ncn(CCC(F)(F)F)c1Br [I-009] | 90
O=C(NS(=O)(=O)c1c(Cl)cccc1Cl)c1cn(-c2cc(Cl)c(Br)c(Cl)c2)cn1 [I-313] | 90
CSc1cccc(Cl)c1S(=O)(=O)NC(=O)c1cn(-c2cc(F)cc(Cl)c2)c(C)n1 [I-382] | 100
COc1ccc(Cl)c(S(=O)(=O)NC(=O)c2ncn(-c3cc(F)ccc3F)c2C(C)C)c1 [I-491] | 100
Cc1nc(C(=O)NS(=O)(=O)c2c(Cl)cccc2SC(C)C)cn1-c1cc(F)cc(F)c1 [I-388] | 100
O=C(NS(=O)(=O)Cc1ccccc1)c1ncn(CC(F)(F)F)c1Cl [I-029] | 70
O=C(NS(=O)(=O)c1ccccc1Cl)c1cn(-c2ccc(F)cc2F)cn1 [I-215] | 100
O=C(NS(=O)(=O)c1cccc(Cl)c1)c1cn(Cc2ccc(Cl)cc2)cn1 [I-164] | 90
Cc1cc(-n2cnc(C(=O)NS(=O)(=O)c3ccccc3Cl)c2)cc(C(F)(F)F)c1 [I-290] | 100
Cn1nc(C(=O)NS(C)(=O)=O)cc1-c1ncccc1Cl [I-128] | 70
Cc1ccc(C)c(S(=O)(=O)NC(=O)c2cn(-c3cc(F)cc(Cl)c3)cn2)c1 [I-342] | 90
COc1ccc(Cl)c(S(=O)(=O)NC(=O)c2cn(-c3cccc(Cl)c3Cl)c(C)n2)c1 [I-263] | 90
Cc1nc(C(=O)NS(=O)(=O)c2c(Cl)cccc2Cl)cn1-c1ccc(Cl)cc1 [I-258] | 70
Cc1ccc(C)c(S(=O)(=O)NC(=O)c2cn(-c3cc(Cl)cc(C(F)(F)F)c3)cn2)c1 [I-345] | 100
COc1ccc(Cl)c(S(=O)(=O)NC(=O)c2ncn(C3CC3C(F)(F)F)c2Cl)c1 (centres unmarked) [I-103] | 100
Cn1nc(C(=O)NS(=O)(=O)c2cc(Cl)ccc2Cl)cc1-c1ccccc1 [I-133] | 70
O=C(NS(=O)(=O)c1ccccc1Cl)c1cn(-c2cccc(Cl)c2)cn1 [I-174] | 100
Cc1ccccc1CS(=O)(=O)NC(=O)c1ncn(CCC(F)(F)F)c1Cl [I-093] | 100
COc1ccc(Cl)c(S(=O)(=O)NC(=O)c2cn(-c3ccccc3F)cn2)c1 [I-228] | 90
O=C(NS(=O)(=O)c1ccccc1C(F)(F)F)c1cn(-c2cc(F)cc(C(F)(F)F)c2)cn1 [I-296] | 90
COc1ccc(S(=O)(=O)NC(=O)c2ncn(-c3ccc(Cl)cc3)c2Cl)cc1 [I-415] | 90
CSc1cccc(Cl)c1S(=O)(=O)NC(=O)c1nc(Cl)n(C2CC2C(F)(F)F)c1Cl (centres unmarked) [I-463] | 100
O=C(NS(=O)(=O)c1ccc(Cl)cc1)c1ncn(-c2ccc(Cl)cc2)c1Cl [I-418] | 100
COc1ccccc1S(=O)(=O)NC(=O)c1ncn(-c2ccc(Cl)cc2)c1Cl [I-420] | 100
O=C(NS(=O)(=O)c1c(Cl)cccc1Cl)c1cn(-c2ccccc2)cn1 [I-192] | 100
Cc1ccc(C)c(S(=O)(=O)NC(=O)c2cn(-c3cc(F)cc(C(F)(F)F)c3)cn2)c1 [I-355] | 100

Compound | pest or weed control at 20 ppm [%]
O=C(NS(=O)(=O)c1ccccc1Cl)c1cn(-c2cc(Br)cc(Br)c2)cn1 [I-289] | 90
COc1ccc(F)c(S(=O)(=O)NC(=O)c2cn(-c3cc(Cl)cc(Cl)c3)cn2)c1 [I-347] | 100
O=C(NS(=O)(=O)c1cc(Cn2cccn2)ccc1Cl)c1cn(-c2cc(F)cc(Cl)c2)cn1 [I-343] | 90
CCOc1ccc(Cl)c(S(=O)(=O)NC(=O)c2nc(Cl)n(CCC(F)(F)F)c2Cl)c1 [I-449] | 100
O=C(NS(=O)(=O)c1cccc(C(F)(F)F)c1)c1ncn(CCC(F)(F)F)c1Cl [I-018] | 90
Cc1nc(C(=O)NS(=O)(=O)c2c(Cl)cccc2Cl)cn1-c1c(F)cccc1F [I-362] | 90
COc1ccc(Cl)c(S(=O)(=O)NC(=O)c2cn(-c3cc(C(F)(F)F)cc(C(F)(F)F)c3)cn2)c1 [I-298] | 90
COc1ccc(Cl)c(S(=O)(=O)NC(=O)c2cn(-c3cc(F)cc(F)c3)cn2)c1 [I-287] | 100
O=C(NS(=O)(=O)c1cccc(Cl)c1)c1cn(-c2ccc(C(F)(F)F)cc2Cl)cn1 [I-207] | 100
O=C(NS(=O)(=O)c1c(Cl)cccc1Cl)c1ncn(CC(F)(F)C(F)(F)F)c1Cl [I-099] | 70
O=C(NS(=O)(=O)c1ccccc1Cl)c1cn(-c2ccc(Cl)c(Cl)c2)cn1 [I-196] | 100
COc1ccc(Cl)c(S(=O)(=O)NC(=O)c2ncn(-c3cccc(Cl)c3)c2C2CC2)c1 [I-485] | 90
COc1ccc(F)c(S(=O)(=O)NC(=O)c2cn(-c3cc(Cl)cc(C(F)(F)F)c3)cn2)c1 [I-335] | 90
COc1ccc(Cl)c(S(=O)(=O)NC(=O)c2cn(-c3c(F)cccc3F)cn2)c1 [I-359] | 90
CSc1cccc(Cl)c1S(=O)(=O)NC(=O)c1cn(-c2cc(F)cc(F)c2)c(C)n1 [I-386] | 100
O=C(NS(=O)(=O)c1ccccc1Cl)c1cn(-c2cc(F)cc(C(F)(F)F)c2)cn1 [I-238] | 90
O=C(NS(=O)(=O)c1c(Cl)cccc1Cl)c1cn(-c2ccccc2Cl)cn1 [I-184] | 100
Cc1ccccc1S(=O)(=O)NC(=O)c1nc(Cl)n(-c2cc(Cl)cc(Cl)c2)c1Cl [I-115] | 100
Cn1cc(C(=O)NS(=O)(=O)c2ccccc2Br)nc1C(F)(F)F [I-473] | 90
O=C(NS(=O)(=O)c1ccccc1Cl)c1cn(-c2cc(F)c(Br)c(F)c2)cn1 [I-308] | 90
O=C(NS(=O)(=O)c1ccc(Cl)cc1)c1cn(-c2cc(Cl)cc(Cl)c2)cn1 [I-182] | 90
CCOc1ccc(S(=O)(=O)NC(=O)c2ncn(CCC(F)(F)F)c2Cl)cc1 [I-088] | 90
O=C(NS(=O)(=O)c1c(Cl)cccc1Cl)c1cn(Cc2cccc(C(F)(F)F)c2)cn1 [I-161] | 100
O=C(NS(=O)(=O)c1ccc(Cl)s1)c1ncn(CCC(F)(F)F)c1Cl [I-094] | 90
Cn1nc(C(=O)NS(=O)(=O)c2cc(Cl)ccc2Cl)cc1-c1cc(F)cc(C(F)(F)F)c1 [I-140] | 100
Cc1ccc(CS(=O)(=O)NC(=O)c2ncn(CCC(F)(F)F)c2Cl)cc1 [I-092] | 70

Compound | pest or weed control at 20 ppm [%]
Cc1nc(C(=O)NS(=O)(=O)c2c(Cl)cccc2Cl)cn1-c1cccc(Cl)c1Cl [I-267] | 100
COc1ccc(S(=O)(=O)NC(=O)c2nc(Cl)n(CCC(F)(F)F)c2Cl)cc1 [I-125] | 100
CC(C)Oc1ccc(Cl)c(S(=O)(=O)NC(=O)c2cn(-c3cc(Cl)cc(Cl)c3)cn2)c1 [I-350] | 100
CC(CC(F)(F)F)n1cnc(C(=O)NS(=O)(=O)c2ccccc2C(F)(F)F)c1Cl (centres unmarked) [I-102] | 100
COc1cccc(S(=O)(=O)NC(=O)c2ncn(-c3ccc(Cl)cc3)c2Cl)c1 [I-419] | 100
Cc1nc(C(=O)NS(=O)(=O)c2c(Cl)cccc2Cl)cn1Cc1cccc(Cl)c1 [I-169] | 90
COc1ccc(S(=O)(=O)NC(=O)c2ncn(CC(F)(F)C(F)(F)F)c2Cl)cc1 [I-076] | 90
Cc1nc(C(=O)NS(=O)(=O)c2c(Cl)cccc2Cl)cn1-c1cc(F)cc(F)c1 [I-323] | 100
O=C(NS(=O)(=O)c1ccccc1)c1ncn(-c2cccc(C(F)(F)F)c2)c1Cl [I-434] | 100
O=C(NS(=O)(=O)c1ccccc1Cl)c1cn(-c2cc(Cl)cc(Cl)c2)c(Cl)n1 [I-444] | 100
O=C(NS(=O)(=O)c1ccc(Cl)cc1)c1ncn(-c2ccccc2C(F)(F)F)c1Cl [I-427] | 100
O=C(NS(=O)(=O)c1ccccc1)c1cn(-c2cc(F)cc(Cl)c2)cn1 [I-236] | 90
O=C(NS(=O)(=O)c1ccccc1Cl)c1ncn(CC(F)(F)C(F)(F)F)c1Cl [I-080] | 90
CC(C)Oc1ccc(Cl)c(S(=O)(=O)NC(=O)c2ncn(C3CC3C(F)(F)F)c2Cl)c1 (centres unmarked) [I-104] | 100
COc1ccc(S(=O)(=O)NC(=O)c2cn(CC(F)(F)F)cn2)cc1 [I-027] | 90
O=C(NS(=O)(=O)c1cc(F)ccc1F)c1cn(-c2cc(Cl)cc(Cl)c2)cn1 [I-234] | 70
Cn1nc(C(=O)NS(=O)(=O)c2cc(Cl)ccc2Cl)cc1-c1cc(Cl)cc(Cl)c1 [I-134] | 100
COc1ccc(Cl)c(S(=O)(=O)NC(=O)c2cn(-c3cc(F)cc(Cl)c3)c(C(C)C)n2)c1 [I-408] | 100
CC(C)Oc1ccc(Cl)c(S(=O)(=O)NC(=O)c2nc(Cl)n(CCC(F)(F)F)c2Cl)c1 [I-450] | 100
COc1ccc(Cl)cc1S(=O)(=O)NC(=O)c1nc(Cl)n(C2CC2C(F)(F)F)c1Cl (centres unmarked) [I-464] | 90
O=C(NS(=O)(=O)c1c(Cl)cccc1Cl)c1ncn(CC(F)(F)F)c1Cl [I-016] | 90
COc1ccc(Cl)c(S(=O)(=O)NC(=O)c2nc(C)n(-c3cc(Cl)cc(Cl)c3)c2I)c1 [I-110] | 100
Cn1nc(C(=O)NS(=O)(=O)c2cc(Cl)ccc2Cl)cc1-c1ccc(Cl)cc1 [I-131] | 90
CSc1nc(C(=O)NS(=O)(=O)c2ccccc2Cl)c(Cl)n1CCC(F)(F)F [I-446] | 90
O=C(NS(=O)(=O)c1cc(F)ccc1F)c1cn(-c2cc(Cl)ccc2Cl)cn1 [I-233] | 100
